Patent US20220079912A1, “ANTICANCER FORMULATION” (University of Mississippi, priority 2018, published 2022)

Experiments:
[1] = system: U87MG Glioma cells; assay: Colony formation assay, combination with DHEA; format: cell-based, human; conditions: 24 h, FIG. 20
[2] = system: SK-MEL; assay: Combination cytotoxicity with phenformin; format: cell-based; conditions: data not shown
[3] = system: cancer stem cells (CSCs) grown from BNC6 patient derived Glioblastoma cells; assay: Cell viability by Trypan Blue exclusion cell count, combination with DHEA; format: cell-based, human; conditions: 24 h, FIGS. 22A-B
[4] = system: KB (HeLa); assay: Combination cytotoxicity with phenformin; format: cell-based; conditions: data not shown
[5] = system: T98G human glioblastoma cells; assay: Lactic acid accumulation in cell culture medium; format: cell-based; conditions: FIG. 2B
[6] = system: B16 mouse melanoma cells; assay: Lactic acid accumulation in cell culture medium; format: cell-based; conditions: B16, FIG. 2A
Excerpt: (§1) During cell survival experiments the acidification of the cell culture medium was inhibited when GH was present. Acidification of the cell culture medium occurs because of the enhanced use of glycolysis by transformed cells (and resulting increase in lactic acid production). This led us to investigate whether GH reduced lactic acid levels in the cell culture medium.

[7] = system: MDA-MB-231 human breast cancer cells; assay: Lactic acid accumulation in cell culture medium; format: cell-based; conditions: MDA-MB-231, FIG. 2C
Excerpt: as §1

[8] = system: Mia-PACA pancreatic cancer; assay: Colony formation assay, combination with DHEA; format: cell-based, human; conditions: 24 h, FIG. 20
[9] = system: SK-OV3; assay: Combination cytotoxicity with phenformin; format: cell-based; conditions: SK-OV3, data not shown
[10] = system: MDA-MB-231 breast cancer cells; assay: Colony formation assay, combination with DHEA; format: cell-based, human; conditions: MDA-MB-231, 24 h, FIG. 20
[11] = system: B16 cells; assay: Glucose transport (2-NBDG accumulation); format: cell-based, mouse; conditions: B16, treated for one hour followed by 2-NBDG for one hour
[12] = system: T98G glioblastoma cells; assay: Colony formation assay, combination with DHEA; format: cell-based, human; conditions: 12 h (other inhibitors 24 h), FIG. 19
Experimental: GH, a glycolysis inhibitor, is cytotoxic to human tumor cells when used in combination with a Glucose-6-Phosphate Dehydrogenase inhibitor, dehydroepiandrosterone, (DHEA). To compensate for high ROS levels, cancer cells increase glycolysis and pentose phosphate cycle to provide reducing equivalents (NADH and NADPH) to neutralize hydro peroxides (15). […] The other glycolysis inhibitors tested in combination with DHEA were ineffective even at 24 h.

[13] = system: BT-549; assay: Combination cytotoxicity with phenformin; format: cell-based; conditions: BT-549, data not shown
[14] = system: T98G cells; assay: Combination cytotoxicity with mitochondrial complex I inhibitors (% cell survival)
Excerpt: Example 2: Gnetin H In Combination with Mitochondrial Complex I Inhibitors. […] The plus signs above the combination treatment bars indicates the value of % cell survival if the anti-proliferative effect was additive.
In FIGS. 9 A-B., the plus signs are placed above the combination treatment bars at the % cell survival value if the anti-proliferative effect was additive. […] Both T98G and MDA-MB-231 cells lack functional p53 but B16 are p53 wild type.
Example 4: Peony Seed extract. […] T98G cells were treated with different concentrations of purified GH (numbers indicate μM) or PSE (numbers indicate μg/ml) alone or in combination with a Paw Paw (PP) extract (2 μg/ml) for 48 hrs (FIG. 12 A). The plus signs are placed above the combination treatment bars at the % cell survival value if the anti-proliferative effect was additive. […] T98G cells were treated with different concentrations of purified GH or PSE in combination with a Paw Paw extract (2 μg/ml) for 48 hrs (FIG. 12 B).

[15] = system: KHOS; assay: Combination cytotoxicity with phenformin; format: cell-based; conditions: data not shown
[16] = system: B16 mouse melanoma cells; assay: Cell proliferation / cell survival; format: cell-based; conditions: B16, varying concentrations, 48 hours, dose dependent, FIG. 1
Experimental: (§2) Example 1: trans-Gnetin H (GH)—Trans-Gnetin H inhibits cell proliferation. […] B16 mouse melanoma cells, T98G glioblastoma cells, and MDA-MB-231 human breast cancer cells were treated with varying concentrations of GH for 48 hours with cell survival measured. The B16 mouse melanoma cell line was the most sensitive to the anti-proliferative action of GH, perhaps due to the highly glycolytic nature of these cells and/or that they contain wild type p53.

[17] = system: MDA-MB-231 human breast cancer cells; assay: Cell proliferation / cell survival; format: cell-based; conditions: MDA-MB-231, varying concentrations, 48 hours, dose dependent, FIG. 1
Experimental: as §2

[18] = system: TXNIP protein levels; assay: Western blot of TXNIP protein, T98G cell line; format: cell-based, human; conditions: FIG. 15, FIG. 17
Excerpt: AMPK activation has been previously shown to phosphorylate and cause the degradation of TXNIP during energy stress (13).

[19] = system: cancer stem cell (CSC) populations from two patients with Temodar (TMZ)-resistant glioblastoma; assay: Combination cytotoxicity with Paw Paw acetogenin extract; format: cell-based, human; conditions: GH 4 μM, FIG. 11
Excerpt: (§3) Example 3: Paw Paw Extract.

[20] = system: bulk tumor cells from two patients with Temodar (TMZ)-resistant glioblastoma; assay: as above; format: cell-based, human; conditions: GH 4 μM, FIG. 11
Excerpt: as §3

[21] = system: PA-1 Ovarian cancer; assay: Colony formation assay, combination with DHEA; format: cell-based, human; conditions: PA-1, 24 h, FIG. 20
[22] = system: T98G cells; assay: Glucose transport (2-NBDG accumulation); format: cell-based, human; conditions: treated for one hour followed by 2-NBDG for one hour
[23] = system: Colo320DM colon cancer; assay: Colony formation assay, combination with DHEA; format: cell-based, human; conditions: 24 h, FIG. 20
[24] = system: BNC6 patient derived Glioblastoma cells; assay: Colony formation assay, combination with DHEA; format: cell-based, human; conditions: BNC6, 24 h, FIG. 20
[25] = system: SKOV-3 ovarian cancer; assay: Colony formation assay, combination with DHEA; format: cell-based, human; conditions: SKOV-3, 24 h, FIG. 20

## Oc1ccc(/C=C/c2c3c(cc4c2[C@H](c2cc(O)cc(O)c2)[C@@H](c2ccc(O)cc2)O4)O[C@H](c2ccc(O)cc2)[C@H]3c2cc(O)cc(O)c2)cc1 (relative stereo) [GH, trans-Gnetin H]
[1]
  cytotoxicity in combination with DHEA (cell staining): cytotoxic
[2]
  synergistic cytotoxicity with phenformin: synergistically cytotoxic
[3]
  cytotoxicity in combination with DHEA (percentage of cell viability): cytotoxic
[4]
  synergistic cytotoxicity with phenformin: synergistically cytotoxic
[5]
  lactic acid production: inhibits lactic acid production
[6]
  lactic acid production: inhibits lactic acid production
[7]
  lactic acid production: inhibits lactic acid production
[8]
  cytotoxicity in combination with DHEA (cell staining): cytotoxic
[9]
  synergistic cytotoxicity with phenformin: synergistically cytotoxic
[10]
  cytotoxicity in combination with DHEA (cell staining): cytotoxic
[11]
  effect on accumulation of 2-NBDG (glucose transport): did not influence the accumulation
[12]
  cytotoxicity in combination with DHEA (cell staining): rapidly cytotoxic
[13]
  synergistic cytotoxicity with phenformin: synergistically cytotoxic
[14]
  synergistic cytotoxicity in combination with Paw Paw (PP) extract (2 μg/ml): exhibited synergistic cytotoxicity
  synergistic cytotoxicity in combination with acetogenins (PP) at 1 μg/ml: synergistically cytotoxic
[14]; T98G, Paw Paw extract 2 μg/ml, 48 hrs, FIG. 12 B
  IC50 in combination with PP: 1.3 mg/L
[15]
  synergistic cytotoxicity with phenformin: synergistically cytotoxic
[16]
  inhibition of cell proliferation (cell survival): inhibits the proliferation
[17]
  inhibition of cell proliferation (cell survival): inhibits the proliferation
[18]
  TXNIP protein levels, in combination with Ph: reduction of TXNIP protein levels
[18]; GH 8 μM 6 hrs or 3 hrs, 2-DG 25 mM, OXA 25 mM, BPX 25 μM, DCA 25 mM, 6 hr
  TXNIP protein levels, agent alone: dramatic reduction in the levels of TXNIP protein
[19]
  synergistic cytotoxicity in combination with acetogenin extract from Paw Paw (PP-2 μg/ml): synergistically cytotoxic
[20]
  synergistic cytotoxicity in combination with acetogenin extract from Paw Paw (PP-2 μg/ml): synergistically cytotoxic
[21]
  cytotoxicity in combination with DHEA (cell staining): cytotoxic
[22]
  effect on accumulation of 2-NBDG (glucose transport): did not influence the accumulation
[23]
  cytotoxicity in combination with DHEA (cell staining): cytotoxic
[24]
  cytotoxicity in combination with DHEA (cell staining): cytotoxic
[25]
  cytotoxicity in combination with DHEA (cell staining): cytotoxic
